Experimental data from patent US8912194B2, “CDK inhibitor for the treatment of mesothelioma” (Nerviano Medical Sciences S.R.L., priority 2008, dated 2014).

Legend:
[1] = system: mesothelioma cells (MSTO-211H, NCI-H2052, NCI-H28); assay: Inhibition of cell proliferation, summary over all tested mesothelioma cells; assay type: cell-based; details: all the tested mesothelioma cells, 72 hours; read-out: IC50 range, inhibition of proliferation
Procedure: (§1) MSTO-211H, NCI-H2052 and NCI-H28 mesothelioma cell lines were cultured in RPMI 1640 added with 10% FCS, 2 mM glutamine, 1 mM sodium pyruvate and 10 mM HEPES. For all the experiments cells were seeded at the density of 1×10^4/cm^2, the day after treatment with the compound for the prescribed duration and then collected at the reported times.
(§2) Cells were washed and counted 72 hours after the treatment. Cell proliferation was determined by a cellular adenosine triphosphate monitoring system. Cell proliferation was compared to control cells. The concentration inhibiting cell proliferation by 50% (IC50) was calculated.

[2] = system: cell cycle related markers in mesothelioma cell lines; assay: Western blot analysis of cell cycle related markers, all cell lines; assay type: cell-based; details: all mesothelioma cell lines tested
Procedure: (§3) Treated cells were lysed by adding SDS sample buffer (0.125M Tris-HCl pH6.8, 5% SDS). Samples were heated to 95° C. for 5 minutes and then sonicated using an Ultrasonic 2000 ARTEK. Lysed cells were centrifuged at 13,000 RPM for 10 minutes. Protein quantification was determined using BCA buffer (Pierce) and a BSA standard curve. 20 μg protein extract per well were loaded and separated by SDS-PAGE gel 7.5-10% (PAGE-PLUS 40% concentrate AMRESCO). The gel was blotted onto nitrocellulose filters (Hybond Amersham) in a buffer containing 25 mM Tris HCl pH 8.3, 192 mM Glycine and 20% methanol. The filters were saturated in 5% low-fat milk in TBS containing 0.1% Tween 20 (TBS-T) for 2 hours at room temperature and than incubated overnight at 4° C. with the primary monoclonal followed by washes in TBS-T and incubation using a secondary anti mouse antibody. The bands were visualized using the “Super Signal West Pico” Pierce.

[3] = system: NCI-H28 mesothelioma cell line; assay: Inhibition of cell proliferation (cellular ATP monitoring); assay type: cell-based; details: Homo sapiens; NCI-H28, 72 hours after treatment
Procedure: as §1, §2

[4] = system: NCI-H2052 mesothelioma cell line; assay: as above; assay type: cell-based; details: Homo sapiens; NCI-H2052, 72 hours after treatment
Procedure: as §1, §2

[5] = system: MSTO-211H mesothelioma cell line; assay: as above; assay type: cell-based; details: Homo sapiens, 72 hours after treatment
Procedure: as §1, §2

[6] = molecular target: Thropomyosin Receptor Kinase A (TRKA) (Homo sapiens, UniProt P04629); assay: Scintillation Proximity Assay (SPA) for kinases; assay type: biochemical; details: read-out: IC50 (printed 1050) towards TRKA
Procedure: This assay allows measurement of the inhibition of the kinase activity of a specific enzyme obtained with test compound. Different kinases can be tested in parallel.
A biotinylated substrate is trans-phosphorylated by a specific kinase in the presence of ATP including a γ33-ATP tracer. At the end of the reaction the phosphorylated substrate is then captured using Streptavidin-coated SPA beads. A dense 5M CsCl solution is added and the mixture is incubated for four hours. This causes the SPA beads to float to the top of the CsCl solution containing the unincorporated radiolabelled ATP.
The extent of phosphorylation is measured using a β-counter.

[7] = system: NCI-H28 mesothelioma cell line; assay: Analysis of cell cycle progression and apoptosis induction (cytofluorimetry, propidium iodide); assay type: cell-based; details: NCI-H28, 24 hours after treatment, cytofluorimetric analysis
Procedure: (§4) MSTO-211H, NCI-H2052 and NCI-H28 mesothelioma cell lines were cultured in RPMI 1640 added with 10% FCS, 2 mM glutamine, 1 mM sodium pyruvate and 10 mM HEPES. For all the experiments cells were seeded at the density of 1×10^4/cm^2, the day after treatment with the compound for the prescribed duration and then collected at the reported times. Cells were washed 24 hours after the treatment, fixed with cold methanol 70% and stored at −20° C. Fixed cells were washed with PBS to remove methanol and were stained with 25 μg/mL of propidium iodide, 5 μg/mL of RNase, and 0.125 μg/mL of Nonidet P 40. Cells were kept at room temperature for 60 minutes in the dark and were analyzed by BD FACSCalibur™ system interfaced to a Macintosh G4 computer with BD CellQuest™ 3.3 software. All doublets or aggregates were removed during analysis by an appropriate gate on an FL3-A/FL3-W dot plot and DNA content analysis was performed in ≧10,000 gated cells. DNA histograms (shown in FIG. 1) were analyzed using ModFit LT™

[8] = system: NCI-H2052 mesothelioma cell line; assay: as above; assay type: cell-based; details: NCI-H2052, 24 hours after treatment, cytofluorimetric analysis
Procedure: as §4

[9] = system: MSTO-211H mesothelioma cell line; assay: as above; assay type: cell-based
Procedure: as §4

[10] = system: Rb phosphorylation, cyclin A and cdc6 expression in NCI-H28 cells; assay: Western blot analysis of cell cycle related markers; assay type: cell-based; details: 1 and 3 μM, 24 hours, FIG. 2
Procedure: as §3

[11] = system: phosphorylation of AKT, S6 and MAPK in NCI-H28 cells; assay: Western blot analysis of tyrosine kinase growth factor receptor mediated pathways; assay type: cell-based; details: 1 and 3 μM, FIG. 2
Procedure: as §3

mesothelioma = details: single agent, mesothelioma patients; cited from earlier work

Sequence of Thropomyosin Receptor Kinase A (TRKA) (P04629 33-796): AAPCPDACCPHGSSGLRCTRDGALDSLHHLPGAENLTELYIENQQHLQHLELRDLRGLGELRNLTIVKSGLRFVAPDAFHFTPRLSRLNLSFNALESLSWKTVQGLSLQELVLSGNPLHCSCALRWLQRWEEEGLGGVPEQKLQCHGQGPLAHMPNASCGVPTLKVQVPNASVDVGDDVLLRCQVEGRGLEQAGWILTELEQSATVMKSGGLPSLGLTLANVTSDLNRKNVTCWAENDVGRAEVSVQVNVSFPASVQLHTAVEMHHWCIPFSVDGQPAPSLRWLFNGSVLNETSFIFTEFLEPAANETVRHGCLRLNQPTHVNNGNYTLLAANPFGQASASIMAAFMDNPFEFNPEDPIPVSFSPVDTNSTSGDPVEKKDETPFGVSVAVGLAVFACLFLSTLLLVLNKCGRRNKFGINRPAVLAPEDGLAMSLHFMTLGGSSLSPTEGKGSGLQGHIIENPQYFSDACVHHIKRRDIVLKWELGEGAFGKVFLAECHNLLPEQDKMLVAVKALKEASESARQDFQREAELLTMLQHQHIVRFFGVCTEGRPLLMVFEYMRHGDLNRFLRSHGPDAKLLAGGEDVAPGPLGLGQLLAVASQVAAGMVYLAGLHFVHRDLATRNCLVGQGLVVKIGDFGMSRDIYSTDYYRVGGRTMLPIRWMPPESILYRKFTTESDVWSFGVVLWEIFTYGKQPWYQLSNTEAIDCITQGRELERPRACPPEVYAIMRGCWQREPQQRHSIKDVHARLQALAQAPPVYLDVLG

For `CNC(=O)c1nn(C)c2c1C(C)(C)Cc1cnc(Nc3ccc(N4CCN(C)CC4)cc3)nc1-2` [compound of formula (I), 8-[4-(4-methyl-piperazin-1-yl)-phenylamino]-1,4,4-trimethyl-4,5-dihydro-1H-pyrazolo[4,3-h]quinazoline-3-carboxylic acid methylamide], the IC50 [1] was 230 to 1560 nM, the “cell cycle related markers” value [2] was “decrease” and the IC50 [3] was 1.56 ± 0.52 µM. The IC50 [4] was 0.74 ± 0.37 µM, the IC50 [5] was 0.23 ± 0.1 µM and the IC50 [6] was 53 nM. For the same molecule, the “Sub G1 % (percentage of cells with a sub G1 DNA content, apoptosis)” value [7] was 5%, the “Sub G1 % (percentage of cells with a sub G1 DNA content, apoptosis)” value [8] was 14% and the “Effect on cell cycle progression” value ([9]; 1 μM, 24 hours, FIG. 1) was “G1 block”. The “Sub G1 peak (induction of apoptosis)” value ([9]; 3 μM, 24 hours, FIG. 1) was “increase of the sub G1 peak”, the “Sub G1 % (percentage of cells with a sub G1 DNA content, apoptosis)” value ([9]; 24 hours after treatment, cytofluorimetric analysis) was 24% and the Rb phosphorylation ([10]; NCI-H28 cells (mutated in p16/CDKN2A)) was “strong inhibition”. For the same molecule, the cdc6 expression ([10]; NCI-H28 cells) was “strong inhibition”, the “cyclin A expression” value ([10]; NCI-H28 cells) was “strong inhibition” and the “phosphorylation of AKT” value [11] was “Inhibition in phosphorylation”. For the same molecule, the “phosphorylation of MAPK” value [11] was “Inhibition in phosphorylation” and the “phosphorylation of S6” value [11] was “Inhibition in phosphorylation”.

In the case of `Nc1nc2[nH]cc(CCc3ccc(C(=O)N[C@@H](CCC(=O)O)C(=O)O)cc3)c2c(=O)[nH]1` [pemetrexed], the median overall survival (mesothelioma) is listed as 10.7 months and the response rate (mesothelioma) is listed as 14.1%.
